Experiment: xn = mol fraction of the nth substance listed
Details: for surface tension liquid-gas: Maximal bubble pressure; for mass density: 100 kPa, Liquid, Vibrating tube method

CCn1cc[n+](CCOC)c1.O=S(=O)([O-])C(F)(F)F + CC(C)O
Details | mass density [kg/m3] | surface tension liquid-gas [mN/m]
288.15 K, x1 = 0.0997 | 929.227 | 21.4
288.15 K, x1 = 0.2004 | 1030.66 | 22.3
288.15 K, x1 = 0.3004 | 1105.98 | 23.8
288.15 K, x1 = 0.4003 | 1163.83 | 25.5
288.15 K, x1 = 0.5004 | 1210.18 | 27.2
288.15 K, x1 = 0.6008 | 1248.32 | 28.9
288.15 K, x1 = 0.7 | 1279.5 | 30.8
288.15 K, x1 = 0.7998 | 1306.12 | 32.8
288.15 K, x1 = 0.9003 | 1329.28 | 34.5
288.15 K, x1 = 1 | 1348.94 | 36.3
293.15 K, x1 = 0.0997 | 925.015 | 21.1
293.15 K, x1 = 0.2004 | 1026.4 | 22
293.15 K, x1 = 0.3004 | 1101.69 | 23.6
293.15 K, x1 = 0.4003 | 1159.55 | 25.3
293.15 K, x1 = 0.5004 | 1205.9 | 27
293.15 K, x1 = 0.6008 | 1244.05 | 28.6
293.15 K, x1 = 0.7 | 1275.23 | 30.6
293.15 K, x1 = 0.7998 | 1301.86 | 32.6
293.15 K, x1 = 0.9003 | 1325.01 | 34.3
293.15 K, x1 = 1 | 1344.66 | 36.1
298.15 K, x1 = 0.0997 | 920.772 | 20.7
298.15 K, x1 = 0.2004 | 1022.12 | 21.7
298.15 K, x1 = 0.3004 | 1097.4 | 23.3
298.15 K, x1 = 0.4003 | 1155.27 | 25
298.15 K, x1 = 0.5004 | 1201.63 | 26.7
298.15 K, x1 = 0.6008 | 1239.8 | 28.4
298.15 K, x1 = 0.7 | 1270.99 | 30.4
298.15 K, x1 = 0.7998 | 1297.61 | 32.3
298.15 K, x1 = 0.9003 | 1320.76 | 34.1
298.15 K, x1 = 1 | 1340.41 | 35.8
303.15 K, x1 = 0.0997 | 916.497 | 20.3
303.15 K, x1 = 0.2004 | 1017.82 | 21.5
303.15 K, x1 = 0.3004 | 1093.11 | 23.1
303.15 K, x1 = 0.4003 | 1150.99 | 24.8
303.15 K, x1 = 0.5004 | 1197.38 | 26.5
303.15 K, x1 = 0.6008 | 1235.56 | 28.2
303.15 K, x1 = 0.7 | 1266.76 | 30.1
303.15 K, x1 = 0.7998 | 1293.38 | 32.1
303.15 K, x1 = 0.9003 | 1316.53 | 33.9
303.15 K, x1 = 1 | 1336.17 | 35.5
308.15 K, x1 = 0.0997 | 912.188 | 20
308.15 K, x1 = 0.2004 | 1013.52 | 21.2
308.15 K, x1 = 0.3004 | 1088.82 | 22.8
308.15 K, x1 = 0.4003 | 1146.73 | 24.6
308.15 K, x1 = 0.5004 | 1193.13 | 26.3
308.15 K, x1 = 0.6008 | 1231.33 | 28
308.15 K, x1 = 0.7 | 1262.54 | 29.8
308.15 K, x1 = 0.7998 | 1289.17 | 31.9
308.15 K, x1 = 0.9003 | 1312.32 | 33.6
308.15 K, x1 = 1 | 1331.96 | 35.3
313.15 K, x1 = 0.0997 | 907.842 | 19.7
313.15 K, x1 = 0.2004 | 1009.19 | 21
313.15 K, x1 = 0.3004 | 1084.53 | 22.6
313.15 K, x1 = 0.4003 | 1142.47 | 24.4
313.15 K, x1 = 0.5004 | 1188.9 | 26.1
313.15 K, x1 = 0.6008 | 1227.11 | 27.8
313.15 K, x1 = 0.7 | 1258.34 | 29.6
313.15 K, x1 = 0.7998 | 1284.98 | 31.7
313.15 K, x1 = 0.9003 | 1308.13 | 33.3
313.15 K, x1 = 1 | 1327.77 | 35.1
318.15 K, x1 = 0.0997 | 903.442 | 19.4
318.15 K, x1 = 0.2004 | 1004.85 | 20.7
318.15 K, x1 = 0.3004 | 1080.23 | 22.4
318.15 K, x1 = 0.4003 | 1138.22 | 24.2
318.15 K, x1 = 0.5004 | 1184.68 | 25.9
318.15 K, x1 = 0.6008 | 1222.91 | 27.6
318.15 K, x1 = 0.7 | 1254.16 | 29.4
318.15 K, x1 = 0.7998 | 1280.8 | 31.5
318.15 K, x1 = 0.9003 | 1303.96 | 33.1
318.15 K, x1 = 1 | 1323.6 | 34.9

CCn1cc[n+](CCOC)c1.O=S(=O)([O-])C(F)(F)F + CCCO
Details | mass density [kg/m3] | surface tension liquid-gas [mN/m]
288.15 K, x1 = 0.0987 | 944.376 | 23.4
288.15 K, x1 = 0.1999 | 1043.54 | 24.2
288.15 K, x1 = 0.2982 | 1114.64 | 25
288.15 K, x1 = 0.3994 | 1171.5 | 26.2
288.15 K, x1 = 0.499 | 1215.82 | 27.7
288.15 K, x1 = 0.5993 | 1252.38 | 29.5
288.15 K, x1 = 0.6979 | 1282.09 | 31.5
288.15 K, x1 = 0.8009 | 1308.48 | 33
288.15 K, x1 = 0.8992 | 1329.95 | 34.8
288.15 K, x1 = 1 | 1348.94 | 36.3
293.15 K, x1 = 0.0987 | 940.25 | 23.1
293.15 K, x1 = 0.1999 | 1039.33 | 23.8
293.15 K, x1 = 0.2982 | 1110.4 | 24.7
293.15 K, x1 = 0.3994 | 1167.24 | 25.9
293.15 K, x1 = 0.499 | 1211.56 | 27.4
293.15 K, x1 = 0.5993 | 1248.12 | 29.2
293.15 K, x1 = 0.6979 | 1277.83 | 31.3
293.15 K, x1 = 0.8009 | 1304.21 | 32.7
293.15 K, x1 = 0.8992 | 1325.68 | 34.6
293.15 K, x1 = 1 | 1344.66 | 36.1
298.15 K, x1 = 0.0987 | 936.122 | 22.7
298.15 K, x1 = 0.1999 | 1035.12 | 23.5
298.15 K, x1 = 0.2982 | 1106.16 | 24.3
298.15 K, x1 = 0.3994 | 1162.99 | 25.5
298.15 K, x1 = 0.499 | 1207.32 | 27.1
298.15 K, x1 = 0.5993 | 1243.87 | 28.9
298.15 K, x1 = 0.6979 | 1273.58 | 31
298.15 K, x1 = 0.8009 | 1299.97 | 32.5
298.15 K, x1 = 0.8992 | 1321.43 | 34.4
298.15 K, x1 = 1 | 1340.41 | 35.8
303.15 K, x1 = 0.0987 | 931.974 | 22.4
303.15 K, x1 = 0.1999 | 1030.91 | 23.1
303.15 K, x1 = 0.2982 | 1101.93 | 24
303.15 K, x1 = 0.3994 | 1158.75 | 25.1
303.15 K, x1 = 0.499 | 1203.08 | 26.7
303.15 K, x1 = 0.5993 | 1239.64 | 28.6
303.15 K, x1 = 0.6979 | 1269.36 | 30.7
303.15 K, x1 = 0.8009 | 1295.75 | 32.2
303.15 K, x1 = 0.8992 | 1317.21 | 34.2
303.15 K, x1 = 1 | 1336.17 | 35.5
308.15 K, x1 = 0.0987 | 927.821 | 22.1
308.15 K, x1 = 0.1999 | 1026.69 | 22.7
308.15 K, x1 = 0.2982 | 1097.7 | 23.6
308.15 K, x1 = 0.3994 | 1154.52 | 24.8
308.15 K, x1 = 0.499 | 1198.86 | 26.4
308.15 K, x1 = 0.5993 | 1235.43 | 28.3
308.15 K, x1 = 0.6979 | 1265.15 | 30.4
308.15 K, x1 = 0.8009 | 1291.54 | 32
308.15 K, x1 = 0.8992 | 1313 | 33.9
308.15 K, x1 = 1 | 1331.96 | 35.3
313.15 K, x1 = 0.0987 | 923.647 | 21.7
313.15 K, x1 = 0.1999 | 1022.48 | 22.4
313.15 K, x1 = 0.2982 | 1093.47 | 23.2
313.15 K, x1 = 0.3994 | 1150.29 | 24.5
313.15 K, x1 = 0.499 | 1194.66 | 26.1
313.15 K, x1 = 0.5993 | 1231.23 | 28
313.15 K, x1 = 0.6979 | 1260.96 | 30
313.15 K, x1 = 0.8009 | 1287.35 | 31.7
313.15 K, x1 = 0.8992 | 1308.81 | 33.7
313.15 K, x1 = 1 | 1327.77 | 35.1
318.15 K, x1 = 0.0987 | 919.45 | 21.3
318.15 K, x1 = 0.1999 | 1018.44 | 22.1
318.15 K, x1 = 0.2982 | 1089.25 | 22.8
318.15 K, x1 = 0.3994 | 1146.1 | 24.2
318.15 K, x1 = 0.499 | 1190.46 | 25.8
318.15 K, x1 = 0.5993 | 1227.04 | 27.8
318.15 K, x1 = 0.6979 | 1256.78 | 29.7
318.15 K, x1 = 0.8009 | 1283.18 | 31.4
318.15 K, x1 = 0.8992 | 1304.63 | 33.5
318.15 K, x1 = 1 | 1323.6 | 34.9
